Measurements from ChEMBL document CHEMBL1121758, “(-)-4-Hydroxymorphinanones: their synthesis and analgesic activity” (1981).
Calls of active or inactive are those of the source. The calls are words filed in the database; no cut-off is given here.

Columns and labels:
[1] = tested on: Rattus norvegicus; test: Agonist activity (administered subcutaneously) determined by rat tail flick test; format: functional; details: sc
[2] = species: Mus musculus; test: Antinociceptive activity determined in acetic acid induced mouse writhing test; format: functional
[3] = tested on: Rattus norvegicus; test: Antagonist activity (administered subcutaneously) determined by rat tail flick test; Inactive at 10 mg/kg; format: functional, organism-based; set-up: dose 10 mg/kg
[4] = tested on: Rattus norvegicus; test: Antagonist activity (administered subcutaneously) determined by rat tail flick test; format: functional; details: sc

| SMILES | ED50 [1] [mg/kg] | ED50 [2] [mg/kg] | ED50 [3] | ED50 [4] [mg/kg] |
| --- | --- | --- | --- | --- |
| CN1CCC23CC(=O)CCC2C1Cc1ccc(O)cc13 (centres undefined) | 20 | 0.15 |  |  |
| COc1cccc2c1C13CCN(C)C(C2)C1CCC(=O)C3 (centres undefined) |  | 0.21 |  |  |
| O=C1CCC2C3Cc4cccc(O)c4C2(CCN3CC2CC2)C1 (centres undefined) |  | 0.64 | inactive |  |
| O=C1CCC2C3Cc4ccc(O)cc4C2(CCN3CC2CC2)C1 (centres undefined) |  |  |  | 2.3 |
| C=CCN1CC[C@]23c4c5ccc(O)c4O[C@H]2[C@@H](O)C=C[C@H]3[C@H]1C5 [NALORPHINE] |  | 1.22 |  | 0.86 |
| CN1CCC23CC(=O)CCC2C1Cc1cccc(O)c13 (centres undefined) | 19.2 | 0.18 |  |  |
| O=C1CCC2C3Cc4cccc5c4C2(CCN3CC2CC2)C1O5 (centres undefined) |  | 0.06 |  | 12.5 |
| CN1CC[C@]23c4c5ccc(O)c4O[C@H]2[C@@H](O)C=C[C@H]3[C@H]1C5.CN1CC[C@]23c4c5ccc(O)c4O[C@H]2[C@@H](O)C=C[C@H]3[C@H]1C5.O=S(=O)(O)O | 7.3 | 0.8 |  |  |
